From patent publication US7022690B2, “Carboxylic acid substituted heterocycles, derivatives thereof and methods of use” (Amgen Inc., priority 1997, dated 2006)
pKi: −log10 of the molar value.

How the values were obtained:
[1] = molecular target: Human neutrophil collagenase (HNC) (Homo sapiens, UniProt P22894); assay: Human Neutrophil Collagenase Assay; assay type: biochemical; settings: fluorogenic peptide substrate, 96-well plate in duplicate; reference inhibitor
Method: Human neutrophil collagenase (HNC) activity is determined by using fluorogenic peptide substrate Dnp-Pro-b-Cyclohexyl-Ala-Gly-Cys(Me)-His-Ala-Lys-(N-methylanthranilic acid)-NH2. The N-terminus Dnp group and the C-terminus N-methyl-anthranilyl moiety (Nma) are fluorescence self-quenching until the peptide is cleaved at the Gly-Cys(me) bond. The fluorescence from the cleavage products is measured on a Bio-Tek Instrument FL500 fluorescence micro-plate reader (excitation at 360 nm, emission at 460 nm).

[2] = molecular target: Human fibroblast stromelysin (HFS) (Homo sapiens, UniProt P08254); assay: biochemical
Sequence of Human fibroblast stromelysin (HFS) (P08254 100-477): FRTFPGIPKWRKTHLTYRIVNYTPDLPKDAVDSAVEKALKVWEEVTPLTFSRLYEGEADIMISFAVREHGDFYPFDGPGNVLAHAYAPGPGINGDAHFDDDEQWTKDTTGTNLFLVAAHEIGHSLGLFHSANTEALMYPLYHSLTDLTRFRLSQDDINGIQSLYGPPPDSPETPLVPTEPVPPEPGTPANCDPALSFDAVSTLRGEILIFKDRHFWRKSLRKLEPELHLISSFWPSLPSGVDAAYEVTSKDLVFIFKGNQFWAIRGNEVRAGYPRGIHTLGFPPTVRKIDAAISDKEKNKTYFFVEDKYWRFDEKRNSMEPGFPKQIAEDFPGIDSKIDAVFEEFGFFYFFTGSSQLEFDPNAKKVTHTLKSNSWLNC
Method: Human Fibroblast Stromelysin Assay
Human fibroblast stromelysin (HFS) activity is determined by using fluorogenic peptide substrate Dnp-Pro-b-Cyclohexyl-Ala-Gly-Cys(Me)-His-Ala-Lys-(N-methylanthranilic acid)-NH2. The N-terminus Dnp group and the C-terminus N-methyl-anthranilyl moiety (Nma) are fluorescence self-quenching until the peptide is cleaved at the Gly-Cys(me) bond. The fluorescence from the cleavage products is measured on a Bio-Tek Instrument FL500 fluorescence micro-plate reader (excitation at 360 nm, emission at 460 nm).

Sequence of Human neutrophil collagenase (HNC) (P22894 101-467): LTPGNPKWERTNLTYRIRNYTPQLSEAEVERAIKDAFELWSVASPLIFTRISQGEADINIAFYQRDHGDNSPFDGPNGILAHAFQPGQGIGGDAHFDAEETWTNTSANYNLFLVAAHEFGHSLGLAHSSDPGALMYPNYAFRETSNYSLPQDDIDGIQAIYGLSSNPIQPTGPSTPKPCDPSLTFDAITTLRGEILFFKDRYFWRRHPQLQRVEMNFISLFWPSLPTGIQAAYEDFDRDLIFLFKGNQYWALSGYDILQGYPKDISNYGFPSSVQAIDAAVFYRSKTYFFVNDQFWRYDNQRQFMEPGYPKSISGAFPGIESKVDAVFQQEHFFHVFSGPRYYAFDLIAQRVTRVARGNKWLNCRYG

**Q.** How did the pKi [1] turn out when `CCCCC[C@H](CC(=O)NO)C(=O)N[C@H](C(=O)N1CCC[C@H]1CO)C(C)C` [Actinonin] was run?
**A.** 6.14

**Q.** What about the pKi [2] of the same compound?
**A.** 6.14
